Data as given in US20050085531A1, “Thiophene-based compounds exhibiting ATP-utilizing enzyme inhibitory activity, and compositions, and uses thereof” (priority 2003, published 2005).

Biological target: AKT1 (Homo sapiens, UniProt P31749)
Experiment: HTS off-chip mobility-shift assay, typical screen parameters for AKT1
Type: biochemical
Details: read-out: inhibition (control inhibitor)
From the text: The following procedures describe the reagent and plate preparation for a HTS of an ATP-utilizing enzyme, such as a protein kinase, run in an off-chip mobility-shift assay format. The following provides an HTS protocol for running a protein kinase HTS screen on a Caliper HTS 250 microfluidics system. The following parameters are dependent on the protein kinase used and can be determined by one skilled in the art as part of a typical assay development process. For example, the peptide substrate used can be identified from the current literature, by screening a peptide library of potential protein kinase substrates, or by other applicable means accepted in the field.
The following table provides typical screen assay parameters appropriate for a Caliper HTS 250 microfluidics system used to assay AKT1. Parameters used to assay other protein kinases can be determined by one skilled in the art. […]
Assays to determine the kinase inhibitory activity of compounds of the present disclosure were performed using a Caliper HTS 250 microfluidics device, Greiner U-bottom assay plates, a Multidrop for transfer of reagents, and Biomek FX (AMNCBM03) software. […] The inhibition of the ATP-utilizing enzyme, such as a particular protein kinase, was determined by measuring the ratio of the peptide substrate to phosphorylated product for each well of the assay plate using the Caliper HTS 250 system.

AKT1, sequence (P31749 whole entry): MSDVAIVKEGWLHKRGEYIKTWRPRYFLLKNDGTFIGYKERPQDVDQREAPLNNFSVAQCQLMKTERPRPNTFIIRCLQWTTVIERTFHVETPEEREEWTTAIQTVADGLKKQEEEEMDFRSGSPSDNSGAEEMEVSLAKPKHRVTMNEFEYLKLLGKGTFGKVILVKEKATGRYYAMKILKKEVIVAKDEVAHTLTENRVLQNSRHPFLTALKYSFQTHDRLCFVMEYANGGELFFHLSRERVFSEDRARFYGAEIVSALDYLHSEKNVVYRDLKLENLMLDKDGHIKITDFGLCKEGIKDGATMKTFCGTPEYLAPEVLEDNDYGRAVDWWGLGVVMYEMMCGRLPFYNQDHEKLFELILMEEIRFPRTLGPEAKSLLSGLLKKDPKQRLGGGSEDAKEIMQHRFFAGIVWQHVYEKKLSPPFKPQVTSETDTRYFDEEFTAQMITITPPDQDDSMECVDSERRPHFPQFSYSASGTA

Row | inhibition at 20000 µM (inhibitor concentration 20 mM, AKT1 screen) | Structure (SMILES) | inhibition at 0.138 µM
1 | – | CN[C@@H]1C[C@H]2O[C@@](C)([C@@H]1OC)n1c3ccccc3c3c4c(c5c6ccccc6n2c5c31)C(=O)NC4 [Staurosporine] | 70%
2 | 100% | O=C(O)CN(CCN(CC(=O)O)CC(=O)O)CC(=O)O [EDTA, ethylenediaminetetraacetic acid] | –
